# Reference: patent US20150175655A1 (priority 2012, published 2015)
# Biological target: T1, NS3 genotype 3a protease (UniProt Q81258)
# T1 construct: Purified NS3 protease domain (amino acids 1-181) of the genotype 1b and 3a virus were generated as above; fused on or other part: N-terminal hexahistidine tag and rTEV protease cleavage site (vector p28-N6H-Tev-NS3(181)3)
# T1 sequence (Q81258 1033-1663): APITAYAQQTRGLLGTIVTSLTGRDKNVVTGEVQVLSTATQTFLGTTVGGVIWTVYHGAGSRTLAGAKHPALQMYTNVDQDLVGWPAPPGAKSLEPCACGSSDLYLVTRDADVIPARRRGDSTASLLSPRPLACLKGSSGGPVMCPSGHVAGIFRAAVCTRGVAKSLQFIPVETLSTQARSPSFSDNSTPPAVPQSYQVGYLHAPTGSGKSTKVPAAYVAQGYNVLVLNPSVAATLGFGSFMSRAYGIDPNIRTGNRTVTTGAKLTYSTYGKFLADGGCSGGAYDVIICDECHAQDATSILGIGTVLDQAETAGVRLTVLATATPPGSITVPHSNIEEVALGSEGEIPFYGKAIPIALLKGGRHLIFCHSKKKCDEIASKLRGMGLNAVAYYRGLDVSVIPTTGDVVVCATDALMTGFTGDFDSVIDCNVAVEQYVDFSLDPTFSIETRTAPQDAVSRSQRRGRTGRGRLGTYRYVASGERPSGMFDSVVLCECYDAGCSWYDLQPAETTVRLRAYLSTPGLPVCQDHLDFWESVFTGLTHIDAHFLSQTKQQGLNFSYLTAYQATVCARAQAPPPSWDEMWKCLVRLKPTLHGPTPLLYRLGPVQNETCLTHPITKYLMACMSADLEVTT
# Assay: Ki determination, NS3 protease genotype 3a (fluorogenic depsipeptide substrate)
# Format: biochemical, hepatitis C virus
# Conditions: 200 pM enzyme, 20 μM NS4A peptide, 2 μM substrate, read-out: Ki 3A
# Description: The coding sequences for the genotype 3 HCV protease domain was amplified by RT-PCR using a Titan One Tube RT-PCR Kit (Roche, Indianapolis, Ind.) and RNA extracted from HCV-positive human serum (BBI Diagnostics, MA) using a QIAmp UltraSens Virus Kit (Qiagen, Valencia, Calif.). 5′ PCR primers were designed to encode N-terminal hexahistidine tags and to insert in-frame rTEV protease cleavage sites into the NS3 protease coding sequences. The resulting DNA fragments were cloned into pET28 yielding the expression vectors p28-N6H-Tev-NS3(181)1a and p28-N6H-Tev-NS3(181)3, respectively.
# BL21AI bacteria (Invitrogen, Carlsbad, Calif.) were transformed with genotype 1b or 3 NS3 expression vectors and used to inoculate a 20 L fermentation vessel (Sartorius BBI System Inc., Bethlehem, Pa.), containing 18 L of fresh 2YT medium supplemented with 50 μg/mL kanamycin. When cell densities reached an OD600 of 1, the temperature of the cultures was reduced from 37° C. to 28° C. and induction was immediately initiated by the addition of 30 μM ZnSO4, 14 mM L-arabinose and 1 mM Isopropyl β-D-thiogalactoside (IPTG) final concentrations. Cells were harvested by centrifugation four hours post-induction and were stored as frozen pellets at −80° C. prior to NS3 protein purification.
# Bacterial pellets collected from the expression of genotype 3 HCV NS3 protease were homogenized in Lysis Buffer (25 mM tris, pH 7.5 buffer containing 150 mM NaCl and 1 mM phenylmethanesulfonyl fluoride (PMSF)) and passed through a microfluidizer at 18,000 pounds/in^2. Homogenized cell lysates were centrifuged at 30,000×g for 30 minutes at 4° C. The resulting P1 pellets were washed with Wash Buffer I (25 mM tris, pH 7.5 containing 1% CHAPS) followed by centrifugation at 10,000×g for 30 minutes at 4° C. […] The resulting P3 pellets were resuspended in Solubilization Buffer (20 ml of 25 mM tris, pH 7.5 containing 150 mM NaCl and 8 M urea) and incubated at 4° C. for one hour. Solubilized proteins were passed through a 0.45 micron filter. Protein concentrations were measured and the solutions were adjusted to 40 mM DTT, incubated for 30 minutes at 4° C. and then quickly diluted into Refolding Buffer (25 mM tris, pH 8.5, 0.8 M Guanidine-HCl, 0.4 M L-Arginine, 10 mM ZnSO4) while stirring. Protein solutions were incubated at 4° C. overnight to allow refolding. Refolded proteases were centrifuged at 30,000×g for 10 minutes to remove residual precipitates. Final protein concentrations were then measured and the NS3 proteases were aliquoted, snap frozen in liquid nitrogen and stored at −80° C.
# Purified NS3 protease domain (amino acids 1-181) of the genotype 1b and 3a virus were generated as above. The internally quenched fluorogenic depsipeptide substrate Ac-DED(Edans)-EEAbuψ[COO]ASK(Dabcyl)-NH2 and a synthetic peptide containing the hydrophobic core residues of the NS4A protein cofactor ([…]; NS4A peptide) were obtained from Anaspec, Inc. (San Jose, Calif.). Other chemicals and biochemicals were of reagent grade or better and were purchased from standard suppliers.
# Reactions were run at room temperature in buffer consisting of 50 mM HEPES, 40% glycerol, 0.05% Triton X-100, 10 mM DTT, and 10% DMSO. The final assay solutions contained 50 pM NS3 genotype 1b protease or 200 pM genotype 3a protease, 20 μM NS4A peptide, and 4 μM substrate (genotype 1 b) or 2 μM substrate (genotype 3a). Inhibitor concentrations varied from 100 nM to 5 pM in 3-fold dilutions, and no-inhibitor controls were included.
# Compound dilutions were made in DMSO at 20× final concentration. Reaction mixtures were prepared in 96-well assay plates. A solution of enzyme and NS4A peptide in assay buffer (25 μL volume with both reagents at 4× final concentration) was mixed with 45 μL assay buffer and 5 μL of either inhibitor or DMSO, and pre-incubated at room temperature for 1 hour. The reaction was started by addition of 25 μL substrate solution at 4× final concentration. […]
row,Compound,Ki [nM]
1,"CC[C@@H]1[C@@H]2CN(C(=O)[C@H](C(C)(C)C)NC(=O)O[C@@H]3CCC[C@H]3CCCCCc3nc4ccc(OC)cc4nc3O2)[C@@H]1C(=O)N[C@]1(C(=O)NS(=O)(=O)C2(C)CC2)C[C@H]1C(F)F [Example 6, (3aR,7S,10S,11S,12R,24aR)-7-tert-butyl-N-[(1R,2R)-2-(difluoromethyl)-1-{[(1-methylcyclopropyl)sulfonyl]carbamoyl}cyclopropyl]-11-ethyl-16-methoxy-5,8-dioxo-1,2,3,3a,5,6,7,8,11,12,20,21,22,23,24,24a-hexadecahydro-10H-9,12-methanocyclopenta[18,19][1,10,3,6]dioxadiazacyclononadecino[11,12-b]quinoxaline-10-carboxamide]",0.62
2,"CC[C@@H]1[C@@H]2CN(C(=O)[C@H](C(C)(C)C)NC(=O)O[C@@H]3C[C@H]3CCCCCc3nc4ccc(OC)cc4nc3O2)[C@@H]1C(=O)N[C@]1(C(=O)NS(=O)(=O)C2(Cl)CC2)C[C@H]1C(F)F [Example 75, (1aR,5S,8S,9S,10R,22aR)-5-tert-butyl-N-[(1R,2R)-1-{[(1-chlorocyclopropyl)sulfonyl]carbamoyl}-2-(difluoromethyl)cyclopropyl]-9-ethyl-14-methoxy-3,6-dioxo-1,1a,3,4,5,6,9,10,18,19,20,21,22,22a-tetradecahydro-8H-7,10-methanocyclopropa[18,19][1,10,3,6]dioxadiazacyclononadecino[11,12-b]quinoxaline-8-carboxamide]",0.12
3,CC[C@@H]1[C@@H]2CN(C(=O)[C@H](C(C)(C)C)NC(=O)O[C@]3(C)CCC[C@H]3CCCCCc3nc4ccc(OC)cc4nc3O2)[C@@H]1C(=O)N[C@]1(C(=O)NS(=O)(=O)C2CC2)C[C@H]1CC [Example 51],0.84
4,"CC[C@@H]1[C@@H]2CN(C(=O)[C@H](C(C)(C)C)NC(=O)O[C@]3(C)CCC[C@H]3CCCCCc3nc4ccc(OC)cc4nc3O2)[C@@H]1C(=O)N[C@]1(C(=O)NS(=O)(=O)C2(C)CC2)C[C@H]1CCF [Example 52, (3aR,7S,10S,11S,12R,24aR)-7-tert-butyl-11-ethyl-N-[(1R,2S)-2-(2-fluoroethyl)-1-{[(1-methylcyclopropyl)sulfonyl]carbamoyl}cyclopropyl]-16-methoxy-3a-methyl-5,8-dioxo-1,2,3,3a,5,6,7,8,11,12,20,21,22,23,24,24a-hexadecahydro-10H-9,12-methanocyclopenta[18,19][1,10,3,6]dioxadiazacyclononadecino[11,12-b]quinoxaline-10-carboxamide]",1.3
5,"CC[C@@H]1[C@@H]2CN(C(=O)[C@H](C(C)(C)C)NC(=O)O[C@@H]3C[C@H]3CCCCC(F)(F)c3nc4ccc(OC)cc4nc3O2)[C@@H]1C(=O)N[C@]1(C(=O)NS(=O)(=O)C2(C)CC2)C[C@H]1CC(F)F [Example 35, (1aR,5S,8S,9S,10R,22aR)-5-tert-butyl-N-[(1R,2S)-2-(2,2-difluoroethyl)-1-{[(1-methylcyclopropyl)sulfonyl]carbamoyl}cyclopropyl]-9-ethyl-18,18-difluoro-14-methoxy-3,6-dioxo-1,1a,3,4,5,6,9,10,18,19,20,21,22,22a-tetradecahydro-8H-7,10-methanocyclopropa[18,19][1,10,3,6]dioxadiazacyclononadecino[11,12-b]quinoxaline-8-carboxamide]",0.23
6,"COc1ccc2nc3c(nc2c1)O[C@H]1CN(C(=O)[C@H](C(C)(C)C)NC(=O)O[C@@H]2C[C@@H]4C[C@@H]4[C@H]2CCCCC3(F)F)[C@H](C(=O)N[C@]2(C(=O)NS(=O)(=O)C3(C)CC3)C[C@H]2C(F)F)[C@@H]1C [Example 81, (1aS,2aR,6S,9S,10S,11R,23aR,23bS)-6-tert-butyl-N-[(1R,2R)-2-(difluoromethyl)-1-{[(1-methylcyclopropyl)sulfonyl]carbamoyl}cyclopropyl]-19,19-difluoro-15-methoxy-10-methyl-4,7-dioxo-1a,2,2a,4,5,6,7,10,11,19,20,21,22,23,23a,23b-hexadecahydro-1H,9H-8,11-methanocyclopropa[4′,5′]cyclopenta[1′,2′:18,19][1,10,3,6]dioxadiazacyclononade cino[11,12-b]quinoxaline-9-carboxamide]",0.05
7,"COc1ccc2nc3c(nc2c1)O[C@H]1CN(C(=O)[C@H](C(C)(C)C)NC(=O)O[C@H]2CC4CC(C4)[C@@H]2CCCCC3)[C@H](C(=O)N[C@]2(C(=O)NS(=O)(=O)C3CC3)C[C@H]2C(F)F)[C@@H]1C [Example 72, (4aS,8S,11S,12S,13R,25aS)-8-tert-butyl-N-[(1R,2R)-1-[(cyclopropylsulfonyl)carbamoyl]-2-(difluoromethyl)cyclopropyl]-17-methoxy-12-methyl-6,9-dioxo-2,3,4,4a,6,7,8,9,12,13,21,22,23,24,25,25a-hexadecahydro-1H,11H-1,3:10,13-dimethanoquinoxalino[2,3-k][1,10,3,6]benzodioxadiazacyclononadecine-11-carboxamide]",4.1

# Same assay, conditions: read-out: Ki 3A, 200 pM enzyme, 20 μM NS4A peptide, 2 μM substrate
row,Compound,Ki [nM]
1,"COc1ccc2nc3c(nc2c1)O[C@H]1CN(C(=O)[C@H](C(C)(C)C)NC(=O)O[C@@H]2C[C@H]2CCCCC3)[C@H](C(=O)N[C@]2(C(=O)NS(=O)(=O)C3CC3)C[C@H]2CC(F)F)[C@@H]1C [Example 24, (1aR,5S,8S,9S,10R,22aR)-5-tert-butyl-N-[(1R,2S)-1-[(cyclopropylsulfonyl)carbamoyl]-2-(2,2-difluoroethyl)cyclopropyl]-14-methoxy-9-methyl-3,6-dioxo-1,1a,3,4,5,6,9,10,18,19,20,21,22,22a-tetradecahydro-8H-7,10-methanocyclopropa[18,19][1,10,3,6]dioxadiazacyclononadecino[11,12-b]quinoxaline-8-carboxamide]",0.92
2,"COc1ccc2nc3c(nc2c1)O[C@H]1CN(C(=O)[C@H](C(C)(C)C)NC(=O)O[C@@H]2C[C@H]2CCCCC3)[C@H](C(=O)N[C@]2(C(=O)NS(=O)(=O)C3CC3)C[C@H]2C(F)F)[C@@H]1C [Example 19, (1aR,5S,8S,9S,10R,22aR)-5-tert-butyl-N-[(1R,2R)-1-[(cyclopropylsulfonyl)carbamoyl]-2-(difluoromethyl)cyclopropyl]-14-methoxy-9-methyl-3,6-dioxo-1,1a,3,4,5,6,9,10,18,19,20,21,22,22a-tetradecahydro-8H-7,10-methanocyclopropa[18,19][1,10,3,6]dioxadiazacyclononadecino[11,12-b]quinoxaline-8-carboxamide]",0.13
